Data taken from ChEMBL document CHEMBL1201862, “PubChem BioAssay data set” (2004).
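Five concentrations, 48 hours, 96-well plates. Here, GI50 denotes the concentration required for 50% inhibition of growth.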 The source made the active and inactive calls. No stated cut-off is given here; in the data, active = GI50 up to about 1.1 µM and inactive = higher.

Columns and labels:
Assay in all cases: NCI anticancer screen, dose series, 48 h
T47D = system: T47D
786-0 = system: 786-0
HOP-62 = system: HOP-62
SK-MEL-2 = system: SK-MEL-2
HOP-92 = system: HOP-92
SNB-75 = system: SNB-75
UACC-62 = system: UACC-62
CAKI-1 = system: CAKI-1
HL-60 = system: HL-60
TK-10 = system: TK-10
OVCAR-5 = system: OVCAR-5
SF-268 = system: SF-268
CCRF-CEM = system: CCRF-CEM
PC-3 = system: PC-3
HCT-15 = system: HCT-15
Hs-578T = system: Hs-578T
SNB-19 = system: SNB-19
SN12C = system: SN12C
MDA-MB-231 = system: MDA-MB-231
NCI-H522 = system: NCI-H522

For `C=CCn1c(-c2ccc(Cl)cc2)cs/c1=N\c1ccccc1OC`, the GI50 (T47D) was 2.34 µM (inactive), the GI50 (786-0) was > 100 µM (inactive) and the GI50 (HOP-62) was 48.9 µM (inactive). The GI50 (SK-MEL-2) was > 74.3 µM (inactive), the GI50 (HOP-92) was > 65 µM (inactive) and the GI50 (SNB-75) was > 33.3 µM (inactive). The GI50 (UACC-62) was 10.1 µM (inactive), the GI50 (CAKI-1) was > 45.2 µM (inactive) and the GI50 (HL-60) was 14.9 µM (inactive). The GI50 (TK-10) was > 100 µM (inactive), the GI50 (OVCAR-5) was > 59.3 µM (inactive) and the GI50 (SF-268) was > 100 µM (inactive). The GI50 (CCRF-CEM) was 8.55 µM (inactive), the GI50 (PC-3) was 32.7 µM (inactive) and the GI50 (HCT-15) was 50 µM. The GI50 (Hs-578T) was > 100 µM (inactive), the GI50 (SNB-19) was > 95.5 µM (inactive) and the GI50 (SN12C) was > 100 µM (inactive).

In the case of `C[C@@H]1OC(=O)/C(=C\N(C)C)[C@H]2CC(=O)N(CCc3cn(S(=O)(=O)C(F)(F)F)c4ccccc34)C[C@H]12`, the GI50 (T47D) was > 100 µM (inactive), the GI50 (786-0) was > 100 µM (inactive) and the GI50 (MDA-MB-231) was > 100 µM (inactive). The GI50 (HOP-62) was > 100 µM (inactive), the GI50 (NCI-H522) was > 100 µM (inactive) and the GI50 (SK-MEL-2) was > 100 µM (inactive). The GI50 (HOP-92) was > 100 µM (inactive), the GI50 (SNB-75) was > 100 µM (inactive) and the GI50 (CAKI-1) was > 100 µM (inactive). For the same compound, the GI50 (TK-10) was > 100 µM (inactive), the GI50 (OVCAR-5) was > 100 µM (inactive) and the GI50 (SF-268) was > 100 µM (inactive). The GI50 (PC-3) was > 100 µM (inactive), the GI50 (HCT-15) was > 100 µM and the GI50 (SNB-19) was > 100 µM (inactive). For the same compound, the GI50 (SN12C) was > 100 µM (inactive).

For `O=P(Nc1ccccc1)(Oc1ccccc1)N(CCCl)CCCl` (centres undefined), the GI50 (HOP-62) was > 100 µM (inactive), the GI50 (NCI-H522) was 14 µM (inactive) and the GI50 (SK-MEL-2) was 36.5 µM (inactive). The GI50 (HOP-92) was 26.4 µM (inactive), the GI50 (SNB-75) was > 100 µM (inactive) and the GI50 (UACC-62) was 89.1 µM (inactive). The GI50 (CAKI-1) was > 100 µM (inactive), the GI50 (HL-60) was 14.8 µM (inactive) and the GI50 (TK-10) was > 100 µM (inactive). For the same compound, the GI50 (OVCAR-5) was > 100 µM (inactive), the GI50 (SF-268) was > 100 µM (inactive) and the GI50 (CCRF-CEM) was 37.8 µM (inactive). For the same compound, the GI50 (HCT-15) was > 100 µM and the GI50 (SN12C) was > 100 µM (inactive).

`C[C@]12C/C(=C/O)C(=O)C(O)=C1CC[C@@H]1C2CC[C@@]2(C)C1CC[C@@H]2O` (some centres undefined) was tested, and the GI50 (786-0) was 33.3 µM (inactive), the GI50 (HOP-62) was 46.7 µM (inactive) and the GI50 (NCI-H522) was 15.6 µM (inactive). For the same compound, the GI50 (SK-MEL-2) was 19.9 µM (inactive), the GI50 (HOP-92) was 23.1 µM (inactive) and the GI50 (SNB-75) was 20.4 µM (inactive). For the same compound, the GI50 (UACC-62) was 16.5 µM (inactive), the GI50 (CAKI-1) was 26.1 µM (inactive) and the GI50 (HL-60) was 17.3 µM (inactive). The GI50 (TK-10) was 42.1 µM (inactive), the GI50 (OVCAR-5) was 21 µM (inactive) and the GI50 (SF-268) was 24.5 µM (inactive). For the same compound, the GI50 (CCRF-CEM) was 18.4 µM (inactive), the GI50 (HCT-15) was 21.5 µM and the GI50 (SNB-19) was 18.3 µM (inactive). The GI50 (SN12C) was 25.9 µM (inactive).

`Cc1cc(N(CCC#N)CCC#N)ccc1/C=C/C(=O)Nc1ccccc1Cl` was tested, and the GI50 (786-0) was > 100 µM (inactive), the GI50 (HOP-62) was > 100 µM (inactive) and the GI50 (NCI-H522) was > 100 µM (inactive). The GI50 (SK-MEL-2) was > 100 µM (inactive), the GI50 (HOP-92) was > 100 µM (inactive) and the GI50 (SNB-75) was > 100 µM (inactive). The GI50 (UACC-62) was > 100 µM (inactive), the GI50 (CAKI-1) was > 100 µM (inactive) and the GI50 (HL-60) was 31.4 µM (inactive). For the same compound, the GI50 (TK-10) was > 100 µM (inactive), the GI50 (OVCAR-5) was > 100 µM (inactive) and the GI50 (SF-268) was > 100 µM (inactive). The GI50 (CCRF-CEM) was 45.5 µM (inactive), the GI50 (HCT-15) was > 100 µM and the GI50 (SNB-19) was > 100 µM (inactive). The GI50 (SN12C) was > 100 µM (inactive).

In the case of `COc1cc(CC2c3cc(OC)c(OC)cc3CCN2C)c(Oc2cc3c(cc2OC)-c2c(OC)c(OC)c(OC)c4c2C(C3)N(C)CC4)cc1OC` (centres undefined), the GI50 (786-0) was 8.39 µM (inactive), the GI50 (HOP-62) was 17.3 µM (inactive) and the GI50 (NCI-H522) was 11.7 µM (inactive). The GI50 (SK-MEL-2) was 14.6 µM (inactive), the GI50 (HOP-92) was 6.53 µM (inactive) and the GI50 (SNB-75) was 11.4 µM (inactive). For the same compound, the GI50 (UACC-62) was 15.2 µM (inactive), the GI50 (CAKI-1) was 14.8 µM (inactive) and the GI50 (HL-60) was 9.29 µM (inactive). The GI50 (TK-10) was 15.4 µM (inactive), the GI50 (OVCAR-5) was 16.2 µM (inactive) and the GI50 (SF-268) was 15 µM (inactive). For the same compound, the GI50 (CCRF-CEM) was 16.4 µM (inactive), the GI50 (HCT-15) was 10.1 µM and the GI50 (SNB-19) was 19.4 µM (inactive). The GI50 (SN12C) was 14 µM (inactive).

With `Cc1cccc(=O)c([O-])c1.Cc1cccc(=O)c([O-])c1.[Bi+3].[Cl-]` the GI50 (786-0) was 13.7 µM (inactive), the GI50 (HOP-62) was 14 µM (inactive) and the GI50 (NCI-H522) was 2.03 µM (inactive). For the same compound, the GI50 (SK-MEL-2) was 16.8 µM (inactive), the GI50 (HOP-92) was 6.01 µM (inactive) and the GI50 (SNB-75) was 10 µM (inactive). For the same compound, the GI50 (UACC-62) was 7.96 µM (inactive), the GI50 (CAKI-1) was 15.5 µM (inactive) and the GI50 (HL-60) was 3 µM (inactive). For the same compound, the GI50 (TK-10) was 17.5 µM (inactive), the GI50 (OVCAR-5) was 14.9 µM (inactive) and the GI50 (SF-268) was 6.61 µM (inactive). For the same compound, the GI50 (CCRF-CEM) was 2.18 µM (inactive), the GI50 (HCT-15) was 4.84 µM and the GI50 (SNB-19) was 15.5 µM (inactive). The GI50 (SN12C) was 11.8 µM (inactive).

With `NC(=O)c1ncn2c1NCC1OC2C(O)C1O` (centres undefined) the GI50 (786-0) was > 100 µM (inactive), the GI50 (HOP-62) was > 100 µM (inactive) and the GI50 (NCI-H522) was > 100 µM (inactive). For the same compound, the GI50 (SK-MEL-2) was > 100 µM (inactive), the GI50 (HOP-92) was > 100 µM (inactive) and the GI50 (SNB-75) was > 100 µM (inactive). For the same compound, the GI50 (UACC-62) was > 100 µM (inactive), the GI50 (CAKI-1) was > 100 µM (inactive) and the GI50 (HL-60) was > 100 µM (inactive). The GI50 (TK-10) was > 100 µM (inactive), the GI50 (OVCAR-5) was > 100 µM (inactive) and the GI50 (SF-268) was > 100 µM (inactive). The GI50 (CCRF-CEM) was > 100 µM (inactive), the GI50 (SNB-19) was > 100 µM (inactive) and the GI50 (SN12C) was > 100 µM (inactive).

For `Cc1cc(C)c2c(O)cc(-c3ccc(F)cc3)nc2n1`, the GI50 (T47D) was 37.8 µM (inactive), the GI50 (MDA-MB-231) was 63 µM (inactive) and the GI50 (HOP-62) was > 100 µM (inactive). The GI50 (NCI-H522) was 30.3 µM (inactive), the GI50 (SK-MEL-2) was 38.7 µM (inactive) and the GI50 (HOP-92) was 29.9 µM (inactive). The GI50 (SNB-75) was 27.2 µM (inactive), the GI50 (UACC-62) was 33.7 µM (inactive) and the GI50 (CAKI-1) was 33.6 µM (inactive). The GI50 (TK-10) was 95.1 µM (inactive), the GI50 (OVCAR-5) was 80.5 µM (inactive) and the GI50 (SF-268) was 42.1 µM (inactive). The GI50 (CCRF-CEM) was 26.7 µM (inactive), the GI50 (HCT-15) was 47.1 µM and the GI50 (Hs-578T) was 69 µM (inactive). The GI50 (SNB-19) was > 100 µM (inactive) and the GI50 (SN12C) was 50.7 µM (inactive).
